In PMC4157028, “HPTLC Analysis, Antioxidant and Antigout Activity of Indian Plants” (Iranian Journal of Pharmaceutical Research : IJPR, 2014):
≈ marks a conversion by molar mass, not a printed value.

Biological target: T1, cow milk xanthine oxidase
T1 construct: gene XDH; commercial enzyme from Himedia Laboratories; abstract says cow milk, reagent list says source: microorganisms
Assay: spectrophotometric uric acid formation at […] nm
Type: biochemical
Details: xanthine substrate (150 mM stock as printed, 2 mL added), phosphate buffer pH 7.5, 25 °C, 15 min preincubation, 30 min reaction

O=c1[nH]cnc2[nH]ncc12 [Allopurinol]
IC50: 6.75 µg/mL (≈ 49.6 µM)
